*1 amine or outer side, *2 acyl side, *3 side chain or, on linkers, in order; H or OH if unused. Where a SMILES comes first, the peptide text is derived from it. Bridges are numbered along the chain shown (N, C = ends). TATA = O=C(CC[*:1])N1CN(C(=O)CC[*:2])CN(C(=O)CC[*:3])C1
What was measured:
human Nectin-4 [1] = biological target: T1, human Nectin-4 (Homo sapiens, UniProt Q96NY8); assay: Nectin-4 direct binding assay (fluorescence polarisation); details: fluorescently tagged peptide, TATA scaffold
T1 sequence (Q96NY8 32-510): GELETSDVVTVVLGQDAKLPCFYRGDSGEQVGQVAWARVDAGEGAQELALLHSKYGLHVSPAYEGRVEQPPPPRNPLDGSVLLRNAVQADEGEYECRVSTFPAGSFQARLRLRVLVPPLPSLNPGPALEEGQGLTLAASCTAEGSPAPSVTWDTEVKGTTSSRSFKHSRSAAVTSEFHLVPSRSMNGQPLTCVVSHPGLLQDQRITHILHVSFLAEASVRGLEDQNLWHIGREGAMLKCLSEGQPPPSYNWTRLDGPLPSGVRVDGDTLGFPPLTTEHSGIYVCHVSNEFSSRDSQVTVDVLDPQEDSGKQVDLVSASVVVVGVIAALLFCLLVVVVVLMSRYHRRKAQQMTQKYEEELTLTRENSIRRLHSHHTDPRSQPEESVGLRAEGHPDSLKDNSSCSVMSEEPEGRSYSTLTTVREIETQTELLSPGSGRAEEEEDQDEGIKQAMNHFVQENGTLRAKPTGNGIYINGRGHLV
Protocol: Affinity of the peptides of the invention for human Nectin-4 (Ki) was determined using a fluorescence polarisation assay, in accordance with the methods disclosed in WO 2016/067035. Peptides of the invention with a fluorescent tag (either fluorescein, SIGMA or Alexa Fluor488™, Fisher Scientific) were diluted to 2.5 nM in PBS with 0.01% tween 20 or 50 mM HEPES with 100 mM NaCl and 0.01% tween pH 7.4 (both referred to as assay buffer). This was combined with a titration of protein in the same assay buffer as the peptide to give 1 nM peptide in a total volume of 25 μL in a black walled and bottomed low bind low volume 384 well plates, typically 5 μL assay buffer, 10 μL protein then 10 μL fluorescent peptide. […] Measurements were conducted on a BMG PHERAstar FS equipped with an “FP 485 520 520” optic module which excites at 485 nm and detects parallel and perpendicular emission at 520 nm. The PHERAstar FS was set at 25° C. with 200 flashes per well and a positioning delay of 0.1 second, with each well measured at 5 to 10 minute intervals for 60 minutes. The gain used for analysis was determined for each tracer at the end of the 60 minutes where there was no protein in the well. Data was analysed using Systat Sigmaplot version 12.0. mP values were fit to a user defined quadratic equation to generate a Kd value: f=ymin+(ymax−ymin)/Lig*((x+Lig+Kd)/2-sqrt((((x+Lig+Kd)/2)^2)−(Lig*x))). […]

human Nectin-4 [2] = biological target: T1, human Nectin-4; assay: Nectin-4 competition binding assay (fluorescence polarisation); details: competition with fluorescent peptide SEQ ID NO: 217; read-out: Ki
How it was run: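 Serially diluted (1 in 2) peptides, max 5% DMSO, were mixed with human Nectin-4 and a fluorescent tracer peptide; FP read as in the direct binding assay. Ki from fitting mP values to a cubic competition equation using tracer concentration, tracer Kd and Nectin-4 concentration.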

SMILES | Ki (human Nectin-4 [1]) | Ki (human Nectin-4 [2])
CC[C@H](C)[C@@H]1NC(=O)[C@H](CCCNC(=N)N)NC(=O)[C@H](CC(=O)O)NC(=O)[C@@H]2CSCCC(=O)N3CN(CN(C3)C(=O)CCSC[C@@H](C(=O)N[C@@H](C)C(N)=O)NC1=O)C(=O)CCSC[C@H](NC(=O)[C@H](Cc1c[nH]c3ccccc13)NC(=O)[C@H](CC(=O)O)NC(=O)[C@@H](N)C(C)C)C(=O)N[C@@H](C)C(=O)N1CCC[C@H]1C(=O)N[C@@H](CC(C)C)C(=O)N[C@@H](CC(=O)O)C(=O)N[C@@H](CC(=O)O)C(=O)N[C@@H](Cc1ccc(O)cc1)C(=O)N[C@@H](Cc1c[nH]c3ccccc13)C(=O)N2 [BCY462, VDW-(SEQ ID NO: 33)-A] (H-VDWCAPLDDYWCDRICA-NH2; linker 4-12-16 via TATA; N-terminus and C-terminus assumed) | 269 nM | 
CC[C@H](C)[C@@H]1NC(=O)[C@H](CCCNC(=N)N)NC(=O)[C@H](CC(N)=O)NC(=O)[C@@H]2CSCCC(=O)N3CN(CN(C3)C(=O)CCSC[C@@H](C(=O)N[C@@H](C)C(N)=O)NC1=O)C(=O)CCSC[C@H](NC(=O)[C@H](Cc1c[nH]c3ccccc13)NC(=O)[C@H](CCCCN)NC(=O)[C@@H](N)CCC(N)=O)C(=O)N[C@@H](C)C(=O)N1CCC[C@H]1C(=O)N[C@@H](CC(C)C)C(=O)N[C@@H](CO)C(=O)N[C@@H](CC(=O)O)C(=O)N[C@@H](Cc1ccc(O)cc1)C(=O)N[C@@H](Cc1c[nH]c3ccccc13)C(=O)N2 [BCY3400, QKW-(SEQ ID NO: 34)-A] (H-QKWCAPLSDYWCNRICA-NH2; linker 4-12-16 via TATA; N-terminus and C-terminus assumed) | 72 nM | 47 nM
